Assay in all cases: relative viability (nuclei count vs DMSO), 5 days (fraction); higher = more cells survive
Compound in the experiment “Entinostat + Vorinostat”: Nc1ccccc1NC(=O)c1ccc(CNC(=O)OCc2cccnc2)cc1 [Entinostat] + O=C(CCCCCCC(=O)Nc1ccccc1)NO [Vorinostat] (partner 1 µM)
An outline of the steps: (§1)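 Relative viability is defined as nuclei in treated wells over nuclei in vehicle wells. Duplicate plates were run and medians reported. Lung cancer cell lines in 1536-well plates were dosed by pin tool one day after seeding, with one drug or with a fixed anchor-drug dose plus five library-drug doses (not always all listed) in √10 steps, and nuclei were counted after 5 days.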

Compound in the experiment “SGI-1776 + OSI-027”: CN1CCC(CNc2ccc3ncc(-c4cccc(OC(F)(F)F)c4)n3n2)CC1 [SGI-1776] + COc1cccc2cc(-c3nc([C@H]4CC[C@H](C(=O)O)CC4)n4ncnc(N)c34)[nH]c12 [OSI-027] (partner 0.5 µM)
An outline of the steps: as §1

Compound in the experiment “Entinostat + Pictilisib”: Nc1ccccc1NC(=O)c1ccc(CNC(=O)OCc2cccnc2)cc1 [Entinostat] + CS(=O)(=O)N1CCN(Cc2cc3nc(-c4cccc5[nH]ncc45)nc(N4CCOCC4)c3s2)CC1 [Pictilisib] (partner 1 µM)
An outline of the steps:
as §1

Compound in experiment [1]: C1COCCN1C2=NC(=NC3=C2OC4=C3C=CC=N4)C5=CC(=CC=C5)NC(=O)C6=CN=C(C=C6)N + Cc1cc(Nc2cc(N3CCN(C)CC3)nc(Sc3ccc(NC(=O)C4CC4)cc3)n2)n[nH]1 [Tozasertib] (partner 0.1 µM)
A digest of the protocol:
as §1

Take LCLC-97TM1: the relative viability with Entinostat + Vorinostat (first compound 0.02 µM) was 0.65; in the experiment with Entinostat + Vorinostat (first compound 0.06325 µM), 0.742; in the experiment with Entinostat + Vorinostat (first compound 0.2 µM) it was 0.588; in the experiment with Entinostat + Vorinostat (first compound 0.6325 µM) it was 0.398; with Entinostat + Vorinostat (first compound 2 µM) it was 0.161; with SGI-1776 + OSI-027 (first compound 0.08 µM) it was 0.597. Besides, the relative viability with SGI-1776 + OSI-027 (first compound 0.8 µM) was determined as 0.487; with SGI-1776 + OSI-027 (first compound 2.53 µM), 0.59; with SGI-1776 + OSI-027 (first compound 8 µM), 0.487; in the experiment with Entinostat + Pictilisib (first compound 0.02 µM), 0.196; in the experiment with Entinostat + Pictilisib (first compound 0.06325 µM) it was 0.193; in the experiment with Entinostat + Pictilisib (first compound 0.2 µM), 0.166. In addition, the relative viability in the experiment with Entinostat + Pictilisib (first compound 0.6325 µM) is 0.104; in the experiment with Entinostat + Pictilisib (first compound 2 µM), 0.122; in experiment [1] (first compound 0.02 µM), 0.266; in experiment [1] (first compound 0.06325 µM), 0.214; in experiment [1] (first compound 0.2 µM), 0.155; in experiment [1] (first compound 0.6325 µM), 0.405. Also, the relative viability in experiment [1] (first compound 2 µM) is 0.261.

On to LCLC-103H, for which the relative viability with Entinostat + Vorinostat (first compound 0.02 µM) amounted to 0.804; with Entinostat + Vorinostat (first compound 0.06325 µM), 0.806; with Entinostat + Vorinostat (first compound 0.2 µM) it was 0.703; with Entinostat + Vorinostat (first compound 0.6325 µM) it was 0.482; with Entinostat + Vorinostat (first compound 2 µM), 0.447; with SGI-1776 + OSI-027 (first compound 0.08 µM), 0.481. The relative viability with SGI-1776 + OSI-027 (first compound 0.8 µM) amounted to 0.446; with SGI-1776 + OSI-027 (first compound 2.53 µM) it was 0.457; in the experiment with SGI-1776 + OSI-027 (first compound 8 µM) it was 0.425; with Entinostat + Pictilisib (first compound 0.02 µM) it was 0.611; with Entinostat + Pictilisib (first compound 0.06325 µM), 0.603; in the experiment with Entinostat + Pictilisib (first compound 0.2 µM) it was 0.636. For the same cell line, the relative viability in the experiment with Entinostat + Pictilisib (first compound 0.6325 µM) stood at 0.452; in the experiment with Entinostat + Pictilisib (first compound 2 µM), 0.479; in experiment [1] (first compound 0.02 µM), 0.537; in experiment [1] (first compound 0.06325 µM) it was 0.511; in experiment [1] (first compound 0.2 µM), 0.471; in experiment [1] (first compound 0.6325 µM), 0.46. In experiment [1] (first compound 2 µM), the relative viability turned out to be 0.35.

Turning to NCI-H522, the relative viability in the experiment with Entinostat + Vorinostat (first compound 0.02 µM) was determined as 0.794; in the experiment with Entinostat + Vorinostat (first compound 0.06325 µM) it was 0.944; in the experiment with Entinostat + Vorinostat (first compound 0.2 µM), 0.863; with Entinostat + Vorinostat (first compound 0.6325 µM), 0.741; in the experiment with Entinostat + Vorinostat (first compound 2 µM), 0.428; with SGI-1776 + OSI-027 (first compound 0.08 µM), 0.713. For the same cell line, the relative viability is 0.811 in the experiment with SGI-1776 + OSI-027 (first compound 0.8 µM); 0.749 in the experiment with SGI-1776 + OSI-027 (first compound 2.53 µM); 0.569 in the experiment with SGI-1776 + OSI-027 (first compound 8 µM); 0.491 in experiment [1] (first compound 0.02 µM); 0.497 in experiment [1] (first compound 0.06325 µM); 0.472 in experiment [1] (first compound 0.2 µM). Also, the values for the relative viability in experiment [1] (first compound 0.6325 µM) and in experiment [1] (first compound 2 µM) were 0.374 and 0.541, respectively.

In the case of NCI-H1299, the relative viability with Entinostat + Pictilisib (first compound 0.02 µM) came to 0.793; with Entinostat + Pictilisib (first compound 0.06325 µM) it was 0.848; with Entinostat + Pictilisib (first compound 0.2 µM) it was 0.63; with Entinostat + Pictilisib (first compound 0.6325 µM) it was 0.532; with Entinostat + Pictilisib (first compound 2 µM), 0.394.

For the cell line NCI-H1563, the relative viability with SGI-1776 + OSI-027 (first compound 0.08 µM) is 0.749; in the experiment with SGI-1776 + OSI-027 (first compound 0.8 µM), 0.8; with SGI-1776 + OSI-027 (first compound 2.53 µM), 0.674; with SGI-1776 + OSI-027 (first compound 8 µM), 0.614; in the experiment with Entinostat + Pictilisib (first compound 0.02 µM), 0.721; in the experiment with Entinostat + Pictilisib (first compound 0.06325 µM), 0.639. For the same cell line, the relative viability in the experiment with Entinostat + Pictilisib (first compound 0.2 µM) was 0.617; in the experiment with Entinostat + Pictilisib (first compound 0.6325 µM), 0.684; in the experiment with Entinostat + Pictilisib (first compound 2 µM), 0.646.

Regarding NCI-H1623, the relative viability amounted to 0.459 with SGI-1776 + OSI-027 (first compound 0.08 µM); 0.416 with SGI-1776 + OSI-027 (first compound 0.8 µM); 0.502 with SGI-1776 + OSI-027 (first compound 2.53 µM); 0.427 with SGI-1776 + OSI-027 (first compound 8 µM); 0.376 in experiment [1] (first compound 0.02 µM); 0.457 in experiment [1] (first compound 0.06325 µM). In addition, the relative viability came to 0.411 in experiment [1] (first compound 0.2 µM), 0.432 in experiment [1] (first compound 0.6325 µM) and 0.461 in experiment [1] (first compound 2 µM).

Turning to NCI-H1648, the relative viability with Entinostat + Vorinostat (first compound 0.02 µM) worked out at 0.65; with Entinostat + Vorinostat (first compound 0.06325 µM) it was 0.336; with Entinostat + Vorinostat (first compound 0.2 µM), 0.345; with Entinostat + Vorinostat (first compound 0.6325 µM) it was 0.342; in the experiment with Entinostat + Vorinostat (first compound 2 µM), 0.208; with SGI-1776 + OSI-027 (first compound 0.08 µM) it was 0.233. Besides, the relative viability with SGI-1776 + OSI-027 (first compound 0.8 µM) is 0.273; with SGI-1776 + OSI-027 (first compound 2.53 µM), 0.249; with SGI-1776 + OSI-027 (first compound 8 µM), 0.238; in experiment [1] (first compound 0.02 µM), 0.468; in experiment [1] (first compound 0.06325 µM) it was 0.48; in experiment [1] (first compound 0.2 µM) it was 0.473. For the same cell line, the relative viability in experiment [1] (first compound 2 µM) worked out at 0.617.

On to NCI-H1703, for which the relative viability with Entinostat + Pictilisib (first compound 0.02 µM) came to 0.263; with Entinostat + Pictilisib (first compound 0.06325 µM), 0.274; in the experiment with Entinostat + Pictilisib (first compound 0.2 µM), 0.314; in the experiment with Entinostat + Pictilisib (first compound 0.6325 µM), 0.384; with Entinostat + Pictilisib (first compound 2 µM) it was 0.304.

Regarding NCI-H1792, the relative viability is 0.764 in the experiment with SGI-1776 + OSI-027 (first compound 0.08 µM); 0.68 in the experiment with SGI-1776 + OSI-027 (first compound 0.8 µM); 0.688 with SGI-1776 + OSI-027 (first compound 2.53 µM); 0.514 with SGI-1776 + OSI-027 (first compound 8 µM); 0.245 in the experiment with Entinostat + Pictilisib (first compound 0.02 µM); 0.239 in the experiment with Entinostat + Pictilisib (first compound 0.06325 µM). For the same cell line, the relative viability came out at 0.164 with Entinostat + Pictilisib (first compound 0.2 µM), 0.0977 in the experiment with Entinostat + Pictilisib (first compound 0.6325 µM) and 0.0839 in the experiment with Entinostat + Pictilisib (first compound 2 µM).

Regarding NCI-H2342, the relative viability with Entinostat + Vorinostat (first compound 0.02 µM) was 0.855; with Entinostat + Vorinostat (first compound 0.06325 µM) it was 0.859; in the experiment with Entinostat + Vorinostat (first compound 0.2 µM), 0.709; in the experiment with Entinostat + Vorinostat (first compound 0.6325 µM), 0.772; in the experiment with Entinostat + Vorinostat (first compound 2 µM), 0.691; in the experiment with SGI-1776 + OSI-027 (first compound 0.08 µM) it was 0.671. Moreover, the relative viability was 0.671 with SGI-1776 + OSI-027 (first compound 0.8 µM); 0.552 with SGI-1776 + OSI-027 (first compound 2.53 µM); 0.622 with SGI-1776 + OSI-027 (first compound 8 µM); 0.505 in experiment [1] (first compound 0.02 µM); 0.483 in experiment [1] (first compound 0.06325 µM); 0.458 in experiment [1] (first compound 0.2 µM). The relative viability amounted to 0.405 in experiment [1] (first compound 0.6325 µM) and 0.451 in experiment [1] (first compound 2 µM).

SW 900: the relative viability with Entinostat + Vorinostat (first compound 0.02 µM) turned out to be 0.634; with Entinostat + Vorinostat (first compound 0.06325 µM), 0.485; with Entinostat + Vorinostat (first compound 0.2 µM) it was 0.476; with Entinostat + Vorinostat (first compound 0.6325 µM), 0.376; with Entinostat + Vorinostat (first compound 2 µM), 0.264; in the experiment with SGI-1776 + OSI-027 (first compound 0.08 µM) it was 0.56. The relative viability with SGI-1776 + OSI-027 (first compound 0.8 µM) was 0.689; with SGI-1776 + OSI-027 (first compound 2.53 µM), 0.564; with SGI-1776 + OSI-027 (first compound 8 µM), 0.399; in experiment [1] (first compound 0.02 µM) it was 0.519; in experiment [1] (first compound 0.06325 µM) it was 0.762; in experiment [1] (first compound 0.2 µM) it was 0.371. The figures for the relative viability in experiment [1] (first compound 0.6325 µM) and in experiment [1] (first compound 2 µM) were 0.373 and 0.279, respectively.
